Assay results published in patent publication US12544382B2, “2, 4, 6-tri-substituted pyrimidine compound as ATR kinase inhibitor” (BEIJING TIDE PHARMACEUTICAL CO., LTD., priority 2019, dated 2026).
pIC50: −log10 of the molar value.

Legend:
[1] = system: TOV21G (ovarian cancer) cells; assay: In vitro cell proliferation inhibition assay (CellTiter-Glo), TOV21G; assay type: cell-based, human; details: 120 hours
Method: (§1) By detecting the effect of compound on cell activity in vitro in the tumor cell lines TOV21G (ovarian cancer) and MV4-11 (leukemia), the effect of compound inhibiting cell proliferation was studied in this assay.
(§2) TOV21G cells and MV4-11 cells were purchased from American Type Culture Collection (ATCC).
TOV21G cells were cultured in MCDB105/M199 medium (containing 15% […]), and used for testing when the cell confluence reaches 85% or more. Each well of a 96-well culture plate was inoculated with about 1000 cells, cultured for 24 hours, and treated with different concentrations (0-10 μM) of compound solution to be tested in triplex. Blank wells (contains medium only) and control wells (seeded cells was not treated with drug) were set. Cells were cultured for 120 hours, 40 μL Cell Titer-Glo solution (Promega, #G7573) were added to each well, incubated with shaking for 20 min in the dark, 100 μL solution was transferred from each well to a 96-well white plate (Corning, #3917), and the luminescence value was read by Biotek Synergy H1 multifunctional microplate reader.

MV4-11 (leukemia) cells = assay: In vitro cell proliferation inhibition assay (CellTiter-Glo), MV4-11; assay type: cell-based, human; details: MV4-11 cells
Method: as §1, §2
MV-4-11 cells were cultured in IMDM medium (containing 20% FBS), each well of a 96-well culture plate was inoculated with about 10000 cells, and treated with different concentrations (0-10 μM) of compounds to be tested in triplex. Blank wells (containing medium only) and control wells (inoculated with cells but not treated with drug) were set. Cells were cultured for 120 hours, 40 μL Cell Titer-Glo solution was added to each well, incubated with shaking for 20 min in the dark, 100 μL solution was transferred from each well to a 96-well white plate, and the luminescence value was read by Biotek Synergy H1 multifunctional microplate reader. Inhibition rate (%)=100%×(control well−test well)/(control well−blank well)

[2] = In vitro liver microsomal stability assay, mouse; assay type: in vitro ADME; details: mouse liver microsomes, final concentration 2.0 nM, with or without NADPH, within 60 minutes; read-out: Mouse liver microsomes t1/2
Method: (§3) Experiments on the stability of the compound of the present disclosure in liver microsomes were performed. The compounds to be tested (final concentration: 2.0 nM) were co-incubated with human/mouse liver microsomes with or without NADPH, and the concentration of compounds in the incubation supernatant was detected within 60 minutes.

[3] = In vitro liver microsomal stability assay, human; assay type: in vitro ADME; details: human liver microsomes, final concentration 2.0 nM, with or without NADPH, within 60 minutes; read-out: Human liver microsomes t1/2
Method: as §3

[4] = In vivo pharmacokinetics assay in mice; details: mouse; male ICR mice, oral gavage 10 mg/kg, plasma
Method: The in vivo pharmacokinetics of the compounds was studied.
Male ICR mice (3 in each group) were orally administered by gavage with a dose of 10 mg/kg. Plasma samples were collected before (0 h) and after administration (0.25, 0.5, 1, 2, 4, 6, 8, 24 h), and the collected samples were analyzed by LC/MS and data were collected. The collected analytical data were used to calculate the relevant pharmacokinetic parameters by Analyst v1.6.2 (AB Applied Biosystems Company, USA).

ATR kinase = ATR kinase (Homo sapiens (Human), UniProt Q13535); assay: ATR kinase activity assay (time-resolved fluorescence, p53 substrate phosphorylation); assay type: biochemical
ATR kinase, sequence (Q13535 whole entry): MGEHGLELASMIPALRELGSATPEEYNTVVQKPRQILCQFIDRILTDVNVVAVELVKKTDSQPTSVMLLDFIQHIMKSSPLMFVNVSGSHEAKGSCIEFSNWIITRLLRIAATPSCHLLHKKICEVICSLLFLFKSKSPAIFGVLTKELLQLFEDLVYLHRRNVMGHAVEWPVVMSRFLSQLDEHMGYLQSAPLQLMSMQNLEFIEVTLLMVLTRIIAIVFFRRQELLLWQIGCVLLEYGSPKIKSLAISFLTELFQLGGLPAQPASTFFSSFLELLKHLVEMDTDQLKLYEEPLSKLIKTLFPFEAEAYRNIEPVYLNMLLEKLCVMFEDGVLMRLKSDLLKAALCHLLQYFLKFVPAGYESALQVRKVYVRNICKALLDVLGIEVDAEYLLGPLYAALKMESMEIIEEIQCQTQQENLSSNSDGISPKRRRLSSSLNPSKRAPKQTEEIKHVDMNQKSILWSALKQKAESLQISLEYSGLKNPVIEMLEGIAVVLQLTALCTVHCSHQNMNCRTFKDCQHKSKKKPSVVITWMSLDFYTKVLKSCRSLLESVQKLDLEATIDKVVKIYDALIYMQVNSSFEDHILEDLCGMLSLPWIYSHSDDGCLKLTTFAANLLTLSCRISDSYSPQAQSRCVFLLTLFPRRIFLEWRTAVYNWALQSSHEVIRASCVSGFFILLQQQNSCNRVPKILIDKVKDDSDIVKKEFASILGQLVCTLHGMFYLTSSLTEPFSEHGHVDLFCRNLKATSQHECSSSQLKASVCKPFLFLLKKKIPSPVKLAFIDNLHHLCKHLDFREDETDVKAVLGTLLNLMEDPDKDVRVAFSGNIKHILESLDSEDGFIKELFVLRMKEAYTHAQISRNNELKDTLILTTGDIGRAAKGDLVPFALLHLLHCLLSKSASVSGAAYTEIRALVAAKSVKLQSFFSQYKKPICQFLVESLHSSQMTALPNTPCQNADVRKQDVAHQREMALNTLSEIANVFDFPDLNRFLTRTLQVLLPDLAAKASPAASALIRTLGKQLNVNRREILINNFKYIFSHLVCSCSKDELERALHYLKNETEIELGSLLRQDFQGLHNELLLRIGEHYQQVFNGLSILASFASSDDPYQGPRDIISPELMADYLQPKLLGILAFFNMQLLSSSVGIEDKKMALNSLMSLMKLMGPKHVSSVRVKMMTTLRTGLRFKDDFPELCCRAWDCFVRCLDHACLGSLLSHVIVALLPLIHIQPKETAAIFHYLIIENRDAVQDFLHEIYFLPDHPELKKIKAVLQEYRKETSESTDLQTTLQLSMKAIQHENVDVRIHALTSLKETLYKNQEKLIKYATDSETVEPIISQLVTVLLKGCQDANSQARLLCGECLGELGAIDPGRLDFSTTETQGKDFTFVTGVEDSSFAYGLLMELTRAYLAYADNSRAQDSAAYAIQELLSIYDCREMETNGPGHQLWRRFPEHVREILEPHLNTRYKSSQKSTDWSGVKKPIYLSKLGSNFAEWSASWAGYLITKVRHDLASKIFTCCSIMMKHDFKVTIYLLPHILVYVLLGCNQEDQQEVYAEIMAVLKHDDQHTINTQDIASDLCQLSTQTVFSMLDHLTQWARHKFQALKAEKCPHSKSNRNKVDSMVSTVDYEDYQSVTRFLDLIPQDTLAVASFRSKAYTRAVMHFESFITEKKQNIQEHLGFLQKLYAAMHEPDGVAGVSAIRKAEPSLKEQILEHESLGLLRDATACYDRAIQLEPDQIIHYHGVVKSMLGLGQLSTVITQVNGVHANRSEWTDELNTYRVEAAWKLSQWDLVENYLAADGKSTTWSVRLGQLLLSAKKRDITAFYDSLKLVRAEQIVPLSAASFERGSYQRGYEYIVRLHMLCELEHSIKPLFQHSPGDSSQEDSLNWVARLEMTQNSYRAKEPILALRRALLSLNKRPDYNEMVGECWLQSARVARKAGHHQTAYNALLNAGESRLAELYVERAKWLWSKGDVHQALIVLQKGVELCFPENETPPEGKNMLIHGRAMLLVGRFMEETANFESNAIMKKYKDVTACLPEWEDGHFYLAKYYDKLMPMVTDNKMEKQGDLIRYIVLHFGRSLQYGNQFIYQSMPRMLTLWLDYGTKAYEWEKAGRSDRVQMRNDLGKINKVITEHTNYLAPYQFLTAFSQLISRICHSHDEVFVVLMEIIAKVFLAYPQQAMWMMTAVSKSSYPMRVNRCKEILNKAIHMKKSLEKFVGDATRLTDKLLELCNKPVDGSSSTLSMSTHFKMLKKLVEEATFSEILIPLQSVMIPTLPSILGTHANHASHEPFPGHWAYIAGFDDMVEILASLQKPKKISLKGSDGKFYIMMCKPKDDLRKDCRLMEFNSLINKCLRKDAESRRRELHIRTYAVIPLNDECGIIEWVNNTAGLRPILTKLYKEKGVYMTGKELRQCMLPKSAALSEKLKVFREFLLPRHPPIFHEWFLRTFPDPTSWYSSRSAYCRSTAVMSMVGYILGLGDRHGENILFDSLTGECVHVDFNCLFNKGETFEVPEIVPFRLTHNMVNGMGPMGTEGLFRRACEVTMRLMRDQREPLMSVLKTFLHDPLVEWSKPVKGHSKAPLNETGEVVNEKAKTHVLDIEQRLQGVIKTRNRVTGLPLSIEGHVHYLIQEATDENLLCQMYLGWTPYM
ATR kinase, sequence (Q8WXE1 whole entry partner): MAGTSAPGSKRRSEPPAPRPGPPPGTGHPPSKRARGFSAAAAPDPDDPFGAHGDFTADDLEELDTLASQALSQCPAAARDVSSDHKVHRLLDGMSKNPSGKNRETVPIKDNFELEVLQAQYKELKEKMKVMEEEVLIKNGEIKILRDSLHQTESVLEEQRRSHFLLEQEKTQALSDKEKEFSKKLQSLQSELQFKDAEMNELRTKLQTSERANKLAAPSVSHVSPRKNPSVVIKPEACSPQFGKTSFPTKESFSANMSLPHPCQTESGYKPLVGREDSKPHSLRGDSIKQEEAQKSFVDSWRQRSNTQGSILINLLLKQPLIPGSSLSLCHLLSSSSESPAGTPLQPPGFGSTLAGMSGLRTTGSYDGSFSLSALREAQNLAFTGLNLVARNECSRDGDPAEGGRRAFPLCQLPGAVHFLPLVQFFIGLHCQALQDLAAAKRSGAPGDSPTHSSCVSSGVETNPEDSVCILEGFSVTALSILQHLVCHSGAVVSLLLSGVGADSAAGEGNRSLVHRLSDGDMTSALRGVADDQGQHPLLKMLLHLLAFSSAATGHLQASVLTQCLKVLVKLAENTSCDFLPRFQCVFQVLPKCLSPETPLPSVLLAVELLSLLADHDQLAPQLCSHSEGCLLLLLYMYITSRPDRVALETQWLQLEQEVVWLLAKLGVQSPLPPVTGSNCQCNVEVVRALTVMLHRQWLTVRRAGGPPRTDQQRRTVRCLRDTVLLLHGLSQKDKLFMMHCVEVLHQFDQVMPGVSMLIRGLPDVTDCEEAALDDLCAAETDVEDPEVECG
Method: Biotinylated protein derived from p53 (Eurofins, art. No.: 14-952) was phosphorylated with ATR kinase. The amount of phosphorylated protein was determined by time-resolved fluorescence in this assay. The amount of phosphorylated protein was detected by anti-p53-phospho-(serine 15)-K-specific antibody (Cisbio, art. No.: 61GSTDLA) and d2 labeled anti-GST antibody (Cisbio, art. No. 61P08KAE). Before the experiment, the following working solution was prepared as required: 1× reaction buffer (20 mM HEPES PH8.0, 1% glycerol, 0.01% Brij-35), dilution buffer (20 mM HEPES PH8.0, 1% glycerol, 0.01% Brij-35, 5 mM DTT and 1% BSA), stop solution (20 mM HEPES PH8.0, 1% glycerol, 0.01% Brij-35, 250 mM EDTA), detection buffer (50 mM HEPES pH7.0, 150 mM NaCl, 267 mM KF, 0.1% sodium cholate, 0.01% Tween-20, 0.0125% sodium azide). The reagents used above are purchased from Sigma or Invitrogen, except for those where the manufacturer was mentioned.
Operations are as follows:
4× gradient dilution of compound solutions was prepared with 1× reaction buffer to obtain 9 compound solutions of different concentrations, and 2.5 μL 4× gradient dilution of compound solutions was added to a 384-well analysis plate (784075, Greiner). 4× p53 substrate working solution (40 nM) was prepared with 1× reaction buffer, and 2.5 μL 4× p53 substrate working solution was added to the 384-well analysis plate. 4×ATR/ATRIP working solution (12.8 ng/μL) was prepared with dilution buffer, and 2.5 μL 4×pATR/ATRIP working solution was added to the 384-well analysis plate. 4×ATP working solution (2 mM) was prepared with deionized water, 2.5 μL 4×ATP working solution was added to the 384-well analysis plate, and incubated at room temperature in dark for 30 minutes. 5 μL stop solution was added to the 384 analysis plate. Finally, 5 μL test mixture (0.084 ng/μL Anti-phospho-p53(ser15)-K and 5 ng/μL Anti-GST-d2) was added to the 384 well analysis plate, incubated overnight at room temperature, and the fluorescence signal was detected with ENVISION (Perkinelmer) instrument (excitation wavelength: 320 nm, emission wavelength: 665 nm and 615 nm). The inhibition rate in each well was calculated by the fluorescence intensity value of each hole: ER (Emission Ratio)=(Fluorescence intensity at 665 nm/Fluorescence intensity at 615 nm); inhibition rate=(ER positive-ER test compound)/(ER positive-ER negative)×100%, the IC50 value of compounds were calculated by standard parameter fitting software (GraphPad Prism 6.0).

pIC50 ([1]; Homo sapiens)	pIC50 (MV4-11 (leukemia) cells; Homo sapiens, MV4-11, 120 h)	half-life at 2 nM [2] [h]	half-life at 2 nM [3] [h]	AUC [4] [ng·h/mL]	Cmax [4] [ng/mL]	Tmax [4] [h]	half-life [4] [h]	pIC50 (ATR kinase)	pIC50 [1]	pIC50 (MV4-11 (leukemia) cells; 120 hours)	Structure (SMILES)
6.92	7.10	1.83	3.38	5450	467	5.3	3.1	–	–	–	CNc1nc2ccccc2n1-c1nc(-c2c(C)nn(C3CCNCC3)c2C(F)(F)F)cc(N2CCOC[C@H]2C)n1 [Compound D24]
6.55	6.64	–	–	2160	199	4.7	3.9	> 9.00	–	–	Cc1nn(C2CCNCC2)c(C(F)(F)F)c1-c1cc(N2CCOC[C@H]2C)nc(-c2cc(F)cc3[nH]ccc23)n1 [Compound D28]
6.59	6.92	1.03	5.63	–	–	–	–	8.30	–	–	Cc1nn(C2CCNCC2)c(C(F)(F)F)c1-c1cc(N2CCOC[C@H]2C)nc(-c2ccnc3[nH]ccc23)n1 [Compound D1]
6.74	7.05	–	–	–	–	–	–	8.40	–	–	Cc1nn([C@H]2CCNCC2(F)F)c(C)c1-c1cc(N2CCOC[C@H]2C)nc(-c2cc(F)cc3[nH]ccc23)n1 [Compound D54a]
–	–	–	–	–	–	–	–	7.27	5.65	6.48	Cc1nn(C2CCNCC2)c(C(F)(F)F)c1-c1cc(N2CCOC[C@H]2C)nc(-n2cnc3ccc(F)cc32)n1 [Compound D30b]
–	–	–	–	–	–	–	–	7.51	6.55	6.54	COc1cc(-c2nc(-c3c(C)nn(C4CCNCC4)c3C(F)(F)F)cc(N3CCOC[C@H]3C)n2)c2cc[nH]c2n1 [Compound D3]
–	–	–	–	–	–	–	–	7.09	5.98	5.87	CNc1nc2cc(F)ccc2n1-c1nc(-c2c(C(F)(F)F)nn(C3CCNCC3)c2C)cc(N2CCOC[C@H]2C)n1 [Compound D16]
6.29	6.55	–	–	–	–	–	–	> 9.00	–	–	Cc1c(-c2cc(N3CCOC[C@H]3C)nc(-c3cccc4[nH]ccc34)n2)c(C(F)(F)F)nn1C1CCNCC1 [Compound D18]
6.64	6.85	2.83	5.05	–	–	–	–	9.00	–	–	Cc1nn(C2CCNCC2)c(C(F)(F)F)c1-c1cc(N2CCOC[C@H]2C)nc(-c2cccc3[nH]ccc23)n1 [Compound D17]
–	–	–	–	–	–	–	–	8.40	6.15	6.21	Cc1nn(C[C@H]2CCCN2)c(C(F)(F)F)c1-c1cc(N2CCOC[C@H]2C)nc(-c2cc(F)cc3[nH]ccc23)n1 [Compound D53]
6.10	6.17	–	–	–	–	–	–	7.47	–	–	CNc1nc2ccccc2n1-c1nc(-c2c(C(F)(F)F)nn(CS(C)(=O)=O)c2C)cc(N2CCOC[C@H]2C)n1 [Compound D44]
6.37	6.66	–	–	–	–	–	–	8.52	–	–	CC(=O)Nc1nc2ccccc2n1-c1nc(-c2c(C)nn(C3CCNCC3)c2C(F)(F)F)cc(N2CCOC[C@H]2C)n1 [Compound D8]
6.10	6.60	–	–	–	–	–	–	> 9.00	–	–	Cc1c(-c2cc(N3CCOC[C@H]3C)nc(-c3ccnc4[nH]ccc34)n2)c(C(F)(F)F)nn1C1CCCNC1 (single isomer, unassigned) [Compound D13]
6.14	6.24	–	–	–	–	–	–	8.30	–	–	CNc1nc2ccccc2n1-c1nc(-c2c(C)nn(CC3CCCNC3)c2C(F)(F)F)cc(N2CCOC[C@H]2C)n1 (stereo partly shown) [Compound D40]
